Results: ChEMBL document CHEMBL5257035, “Nucleoside Derived Antibiotics to Fight Microbial Drug Resistance: New Utilities for an Established Class of Drugs?” (J Med Chem, 2016)
In brackets after ≈: the same amount, converted by molar mass.

What was measured:
Cryptococcus neoformans [1] = experiment: Antifungal activity against Cryptococcus neoformans assessed as fungal growth inhibition; type: functional
Fusarium oxysporum = experiment: Antifungal activity against Fusarium oxysporum assessed as inhibition of fungal growth; type: functional
Candida albicans [2] = experiment: Antifungal activity against Candida albicans assessed as inhibition of fungal growth; type: functional
Aspergillus niger = experiment: Antifungal activity against Aspergillus niger MTCC 282 assessed as reduction in microbial growth measured after 48 hrs by broth dilution method; type: functional
Cryptococcus neoformans [3] = experiment: Antifungal activity against Cryptococcus neoformans assessed as reduction in fungal growth; type: functional
Coccidioides immitis = experiment: Antifungal activity against Coccidioides immitis assessed as reduction in fungal growth; type: functional
[4] = Inhibition of Candida albicans chitin synthase
Candida albicans [5] = experiment: Inhibition of Candida albicans chitin synthase at 1 uM relative to control
Escherichia coli = experiment: Antibacterial activity against Escherichia coli K12 assessed as bacterial growth inhibition by broth microdilution method; type: functional
[6] = tested on: Cutaneotrichosporon cutaneum; experiment: Antifungal activity against Trichosporon cutaneum 3071 assessed as reduction in microbial growth inhibition for 48 hrs by broth microdilution assay; type: functional
Candida albicans [7] = experiment: Antifungal activity against Candida albicans SC5314 assessed as reduction in microbial growth inhibition incubated for 48 hrs by broth microdilution assay; type: functional
Candida albicans [8] = experiment: […] activity against Candida albicans assessed as […] measured after 24 hrs by microtitre dilution method; type: functional
[9] = tested on: Staphylococcus chromogenes; experiment: Antibacterial activity against wild type Staphylococcus chromogenes 7100 assessed as bacterial growth inhibition; type: functional
Candida albicans [10] = experiment: Antifungal activity against Candida albicans B-311 assessed as reduction fungal growth incubated for 16 hrs by microbroth dilution method; type: functional
[11] = Inhibition of Candida albicans SC5314 chitin synthase using UDP-GlcNAc as substrate incubated for 1 hr
Pseudomonas aeruginosa [12] = experiment: Antibacterial activity against Pseudomonas aeruginosa assessed as bacterial growth inhibition; type: functional
Pseudomonas aeruginosa [13] = experiment: Antibacterial activity against Pseudomonas aeruginosa infected in mouse; type: functional
Staphylococcus aureus = experiment: Antibacterial activity against methicillin-resistant Staphylococcus aureus assessed as reduction in bacterial growth by broth dilution method; type: functional
[14] = biological target: T1, Phospho-N-acetylmuramoyl-pentapeptide-transferase (Escherichia coli, UniProt E2QF15); experiment: Inhibition of MraY in Escherichia coli
T1 sequence (E2QF15 whole entry): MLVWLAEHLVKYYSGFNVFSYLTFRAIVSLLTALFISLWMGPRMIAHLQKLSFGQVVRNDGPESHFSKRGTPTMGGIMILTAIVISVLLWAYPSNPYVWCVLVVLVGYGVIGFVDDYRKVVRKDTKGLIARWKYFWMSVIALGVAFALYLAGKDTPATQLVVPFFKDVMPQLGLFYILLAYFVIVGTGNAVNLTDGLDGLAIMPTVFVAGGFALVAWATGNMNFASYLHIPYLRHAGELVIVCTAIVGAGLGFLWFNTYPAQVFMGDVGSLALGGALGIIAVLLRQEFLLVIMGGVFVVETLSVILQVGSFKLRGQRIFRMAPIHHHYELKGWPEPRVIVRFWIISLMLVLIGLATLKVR

Pseudomonas aeruginosa [15] = experiment: Antibacterial activity against Pseudomonas aeruginosa ATCC 27853 assessed as bacterial growth inhibition at 32 ug/ml measured after 16 hrs by broth microdilution method; type: functional; conditions: dose 32 µg/ml
Pseudomonas aeruginosa [16] = experiment: Antibacterial activity against Pseudomonas aeruginosa assessed as reduction in bacterial growth; type: functional
Proline--tRNA ligase = Proline--tRNA ligase (Escherichia coli, UniProt P16659); experiment: Binding affinity to Escherichia coli K12 Prolyl-tRNA synthetase
Chain of Proline--tRNA ligase (P16659 whole entry): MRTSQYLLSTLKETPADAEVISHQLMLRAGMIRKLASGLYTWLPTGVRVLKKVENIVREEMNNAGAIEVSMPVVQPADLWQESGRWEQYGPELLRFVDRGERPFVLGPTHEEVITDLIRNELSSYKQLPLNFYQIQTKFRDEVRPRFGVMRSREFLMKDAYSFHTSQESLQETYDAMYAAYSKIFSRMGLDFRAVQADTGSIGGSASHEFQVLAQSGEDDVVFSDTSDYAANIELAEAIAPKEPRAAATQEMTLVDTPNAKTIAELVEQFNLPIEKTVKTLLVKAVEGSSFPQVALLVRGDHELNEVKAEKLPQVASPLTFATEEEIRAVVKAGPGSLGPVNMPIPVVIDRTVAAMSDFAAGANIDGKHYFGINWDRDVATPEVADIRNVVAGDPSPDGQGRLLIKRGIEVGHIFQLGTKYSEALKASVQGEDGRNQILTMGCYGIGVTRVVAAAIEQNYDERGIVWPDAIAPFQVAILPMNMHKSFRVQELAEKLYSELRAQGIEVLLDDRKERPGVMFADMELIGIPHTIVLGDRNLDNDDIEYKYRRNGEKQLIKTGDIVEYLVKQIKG

[17] = Inhibition of Bacillus stearothermophilus tyrosyl tRNA synthetase; set-up: species or system Geobacillus stearothermophilus
[18] = biological target: Phospho-N-acetylmuramoyl-pentapeptide-transferase (Bacillus subtilis (strain 168), UniProt Q03521); experiment: Inhibition of Bacillus subtilis MraY
Chain of Phospho-N-acetylmuramoyl-pentapeptide-transferase (Bacillus subtilis (strain 168), UniProt Q03521) (Q03521 whole entry): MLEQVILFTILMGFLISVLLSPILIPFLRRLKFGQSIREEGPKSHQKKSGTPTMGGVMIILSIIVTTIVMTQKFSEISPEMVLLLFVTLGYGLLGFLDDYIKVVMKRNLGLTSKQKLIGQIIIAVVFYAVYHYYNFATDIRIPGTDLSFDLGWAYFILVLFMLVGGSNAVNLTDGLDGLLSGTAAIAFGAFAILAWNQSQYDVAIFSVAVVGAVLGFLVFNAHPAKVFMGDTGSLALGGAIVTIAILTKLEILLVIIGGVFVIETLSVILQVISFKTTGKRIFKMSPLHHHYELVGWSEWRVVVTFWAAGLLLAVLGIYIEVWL

Pseudomonas aeruginosa [19] = experiment: Antibacterial activity against Pseudomonas aeruginosa assessed as bacterial growth reduction; type: functional
Pseudomonas aeruginosa [20] = experiment: Antimicrobial activity against Pseudomonas aeruginosa ATCC 27853 assessed as inhibition of microbial growth
[21] = biological target: Phospho-N-acetylmuramoyl-pentapeptide-transferase (Bacillus subtilis (strain 168)) (UniProt Q03521); experiment: Inhibition of Bacillus subtilis MraY at 11.4 uM relative to control
Chain of Phospho-N-acetylmuramoyl-pentapeptide-transferase (Bacillus subtilis (strain 168)) (Q03521 whole entry): as above

With `CC1(C)O[C@@H]2[C@H](O1)[C@@H](Cn1cc(COc3ccc(Cl)cc3)nn1)O[C@H]2n1ccc(=O)[nH]c1=O` the MIC (Cryptococcus neoformans [1]) was 8 µg/mL (≈ 16.8 µM), the MIC (Fusarium oxysporum) was 32 µg/mL (≈ 67.2 µM) and the MIC (Candida albicans [2]) was 24 µg/mL (≈ 50.4 µM).

In the case of `CC(C)C[C@H](N)C(=O)N[C@H](C(=O)O)[C@@H]1C[C@@H](O)[C@@H](O)[C@H](n2ccc(=O)[nH]c2=O)O1`, the MIC (Aspergillus niger) is reported as 0.03 µg/mL, the MIC (Cryptococcus neoformans [3]) is reported as 0.25 µg/mL (≈ 0.603 µM) and the MIC (Coccidioides immitis) is reported as 0.25 µg/mL (≈ 0.603 µM).

Molecule `O=C(NC[C@@H]1O[C@H](n2ccc(=O)[nH]c2=O)[C@@H](O)[C@H]1O)OCCOCCOC(=O)NC[C@H]1O[C@@H](n2ccc(=O)[nH]c2=O)[C@H](O)[C@@H]1O` has an IC50 [4] of 11800 nM and an inhibition (Candida albicans [5]) of 45%.

`Cc1cn([C@H]2C[C@H](N=[N+]=[N-])[C@@H](CO)O2)c(=O)[nH]c1=O` [ZIDOVUDINE] showed an MIC (Escherichia coli) of 10 µg/mL (≈ 37.4 µM).

`C[C@@H]([C@H](N)C(=O)N[C@H](C(=O)O)[C@H]1OC(n2cc(C=O)nc2O)[C@H](O)[C@@H]1O)[C@H](O)c1ccc(O)cn1` (stereo not given in full) [NIKKOMYCIN X] showed an MIC [6] of 64 µg/mL, an MIC (Candida albicans [7]) of 16 µg/mL and an MIC (Candida albicans [8]) of 0.5 µg/mL (≈ 1.01 µM). It also gave an MIC [9] of 2 µg/mL (≈ 4.04 µM), an MIC (Candida albicans [2]) of 2 µg/mL (≈ 4.04 µM) and an MIC (Candida albicans [10]) of 2.5 µg/mL (≈ 5.05 µM). It also gave an IC50 [11] of 0.1 µg/mL (≈ 0.202 µM).

`C[C@@H]([C@H](N)C(=O)N[C@H](C(=O)O)[C@@H]1C[C@@H](O)[C@@H](O)[C@H](n2ccc(=O)[nH]c2=O)O1)[C@H](O)c1ccc(O)cc1` gave an MIC (Aspergillus niger) of 0.03 µg/mL, an MIC (Candida albicans [2]) of 0.03 µg/mL (≈ 0.059 µM) and an MIC (Cryptococcus neoformans [3]) of 0.25 µg/mL (≈ 0.492 µM). For the same molecule, the MIC (Coccidioides immitis) was 0.03 µg/mL (≈ 0.059 µM).

Work on `CSCC[C@H](NC(=O)NC(Cc1cccc(O)c1)C(=O)O)C(=O)NC(CN(C)C(=O)[C@@H](N)C(N)Cc1cccc(O)c1)C(=O)N/C=C1/C[C@@H](O)[C@H](N2CCC(=O)NC2=O)O1` (stereo not given in full) yielded an MIC (Pseudomonas aeruginosa [12]) of 1.5 µg/mL (≈ 1.75 µM) and an ED50 (Pseudomonas aeruginosa [13]) of over 0.1 mg/kg.

Work on `NC[C@H]1O[C@@H](O[C@@H](Cn2cc(CCCCCCCCOc3ccc(C(=O)c4ccccc4)cc3)nn2)[C@H]2O[C@@H](n3ccc(=O)[nH]c3=O)[C@H](O)[C@@H]2O)[C@H](O)[C@@H]1O` yielded an MIC (Staphylococcus aureus) of 8 µg/mL (≈ 10.5 µM) and an IC50 [14] of 8000 nM.

In the case of `NC[C@H]1O[C@@H](O[C@@H](c2cn(CCCCCCCCCCOc3ccc(C(=O)c4ccccc4)cc3)nn2)[C@H]2O[C@@H](n3ccc(=O)[nH]c3=O)[C@H](O)[C@@H]2O)[C@H](O)[C@@H]1O`, the MIC (Staphylococcus aureus) is reported as 8 µg/mL (≈ 10.3 µM).

With `CCCCCCCCCCCCCCCCC(=O)NC(CCCCCCCCCCCCCCC)C(=O)[C@H](NCCCC(=O)NCCCCNC(=N)N)[C@H](O[C@@H]1O[C@H](CN)[C@@H](O)[C@H]1O)[C@H]1O[C@@H](n2ccc(=O)[nH]c2=O)[C@H](O)[C@@H]1O` (stereo not given in full) the MIC (Pseudomonas aeruginosa [15]) was 4 µg/mL (≈ 3.56 µM).

Molecule `C[C@H](N)C(=O)N(C)[C@@H](C)[C@H](NC(=O)[C@H](C)NC(=O)N[C@@H](Cc1c[nH]c2ccccc12)C(=O)O)C(=O)N/C=C1/C[C@@H](O)[C@H](n2ccc(=O)[nH]c2=O)O1` [PACIDAMYCIN D] has an MIC (Pseudomonas aeruginosa [16]) of 32 µg/mL (≈ 45 µM).

Work on `Nc1ncnc2c1ncn2[C@@H]1O[C@H](COS(=O)(=O)NC(=O)[C@@H]2CCCN2)[C@@H](O)[C@H]1O` yielded a Ki (Proline--tRNA ligase) of 4.3 nM.

For `Nc1ncnc2c1ncn2[C@@H]1O[C@H](COS(=O)(=O)NC(=O)[C@@H](N)Cc2ccc(O)cc2)[C@@H](O)[C@H]1O`, the Ki [17] was 26 nM.

In the case of `C[C@@H](NC(=O)N[C@@H](Cc1c[nH]c2ccccc12)C(=O)O)C(=O)N[C@H](C(=O)N/C=C1/C[C@@H](O)[C@H](n2ccc(=O)[nH]c2=O)O1)[C@H](C)N(C)C(=O)[C@@H](N)CN`, the IC50 [18] is reported as 22 nM, the MIC (Pseudomonas aeruginosa [16]) is reported as 32 µg/mL (≈ 44 µM) and the MIC (Pseudomonas aeruginosa [19]) is reported as 16 µg/mL (≈ 22 µM). For the same molecule, the MIC (Pseudomonas aeruginosa [20]) was 4 µg/mL.

`Nc1nc2c(ncn2[C@@H]2O[C@H](CO)[C@@H](O)[C@H]2O)c(=O)o1` gave an MIC (Escherichia coli) of 12.5 µg/mL (≈ 44 µM).

Molecule `C[C@@H]([C@H](N)C(=O)N[C@H](C(=O)O)[C@H]1O[C@@H](n2ccc(=O)[nH]c2=O)[C@H](O)[C@@H]1O)[C@H](O)c1ccc(O)cn1` [NIKKOMYCIN] has an MIC [6] of 64 µg/mL, an MIC (Candida albicans [7]) of 8 µg/mL and an MIC (Cryptococcus neoformans [3]) of 0.03 µg/mL (≈ 0.0606 µM). For the same molecule, the MIC (Coccidioides immitis) was 0.25 µg/mL (≈ 0.505 µM), the IC50 [4] was 800 nM and the MIC (Candida albicans [10]) was 10 µg/mL (≈ 20.2 µM). For the same molecule, the IC50 [11] was 0.3 µg/mL (≈ 0.606 µM).

`NC[C@H]1O[C@@H](OC[C@H]2O[C@@H](n3ccc(=O)[nH]c3=O)[C@H](OS(=O)(=O)O)C2(F)F)[C@H](O)[C@@H]1O` gave an inhibition [21] of 29%.

For `COc1ccc(OCc2cn(C[C@H]3O[C@@H](n4ccc(=O)[nH]c4=O)[C@@H]4OC(C)(C)O[C@@H]43)nn2)cc1`, the MIC (Cryptococcus neoformans [1]) was 8 µg/mL (≈ 17 µM), the MIC (Fusarium oxysporum) was 32 µg/mL (≈ 67.9 µM) and the MIC (Candida albicans [2]) was 24 µg/mL (≈ 50.9 µM).
